The results in this text go back to patent publication US10793885B2, “Compositions and methods for making noscapine and synthesis intermediates thereof” (priority 2013, dated 2020).

Series [1] has as its target T1, NOS (Papaver somniferum, UniProt I3PLR3).
T1 construct: His-tag (pRSETA leader) (N); made in house; host or cells: Escherichia coli Rosetta (DE3) pLysS
T1 sequence (I3PLR3 1-348): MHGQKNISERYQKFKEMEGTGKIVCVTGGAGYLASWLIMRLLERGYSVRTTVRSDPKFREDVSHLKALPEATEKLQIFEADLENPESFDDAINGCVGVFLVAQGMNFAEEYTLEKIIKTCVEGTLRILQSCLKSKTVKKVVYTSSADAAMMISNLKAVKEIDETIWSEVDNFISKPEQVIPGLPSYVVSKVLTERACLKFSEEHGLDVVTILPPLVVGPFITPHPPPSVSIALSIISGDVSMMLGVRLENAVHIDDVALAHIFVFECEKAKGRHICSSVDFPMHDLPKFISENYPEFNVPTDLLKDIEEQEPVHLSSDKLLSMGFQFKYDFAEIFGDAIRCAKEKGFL
The class given is biochemical, opium poppy (Papaver somniferum). To be noted: for acceptance as substrate / conversion by NOS: recombinant NOS, product detection by LC-MS/MS; for Km: cofactor of NOS for the conversion of narcotine hemiacetal to noscapine. The text has this: The full-length cDNA sequence of CL1327Contig1 (see: Example 2) was cloned into vector pRSETA in-frame with an N-terminal His-tag and expressed in E. coli as follows. The NOS coding region was amplified from opium poppy stem cDNA using the following primer set: 5′-[…]-3′ (SEQ ID NO: 601) and 5′-[…]-3′ (SEQ ID NO: 602). The NOS cDNA was cloned into the expression vector pRSETA (Invitrogen) at the SacI and KpnI restriction sites in frame with an N-terminal His-tag sequence. The expression construct was transformed into Escherichia coli strain Rosetta (DE3) pLysS (EMD Chemicals, Darmstadt, Germany). Expression of the recombinant gene was induced overnight with 1 mM isopropyl β-D-thiogalactoside (IPTG) at room temperature. Cells were harvested by centrifugation and sonicated in a buffer containing 50 mM sodium phosphate, pH 7.0, 300 mM NaCl, and 10 mM β-mercaptoethanol. After centrifugation at 20,000 g for 10 min, the supernatant was loaded onto Talon cobalt affinity resin (Clontech, Mountain View, Calif.). Purification was performed according to the manufacturer's instruction. The purified, recombinant protein was desalted using an Amicon centrifugal filter −30K (Millipore, Billerica, Mass.) and stored in a buffer containing 50 mM Tris-HCl, pH 8.0, 1 mM EDTA, 1 mM β-mercaptoethanol, and 10% (v/v) glycerol. Protein concentration was determined by the Bradford assay (Bio-Rad, Hercules, Calif.) using bovine serum albumin as the standard.
The purified recombinant NOS enzyme (see: Example 4) was assayed using either narcotine hemiacetal as the substrate (in the presence of either NAD^+ or NADP^+ as cofactor) for dehydrogenase activity, or with noscapine as the substrate (in the presence of NADH or NADPH as the cofactor) for reductase activity. LC-MS/MS was used to identify and quantify product formation (FIG. 7). […] LC-MS/MS and CID spec
In addition to narcotine hemiacetal and noscapine, NOS was also assayed with several other BIAs that could potentially serve as substrates for dehydrogenase/reductase reactions.

Series [2] deals with T2, CYP82X1 (Papaver somniferum, UniProt I3V6B7).
T2 construct: The full-length coding region of CYP82X1 was amplified using cDNA derived from total stem RNA of the Bea's Choice chemotype; FLAG; made in house; host or cells: Saccharomyces cerevisiae YPL 154C:Pep4, microsomal fraction
T2 sequence (I3V6B7 1-540): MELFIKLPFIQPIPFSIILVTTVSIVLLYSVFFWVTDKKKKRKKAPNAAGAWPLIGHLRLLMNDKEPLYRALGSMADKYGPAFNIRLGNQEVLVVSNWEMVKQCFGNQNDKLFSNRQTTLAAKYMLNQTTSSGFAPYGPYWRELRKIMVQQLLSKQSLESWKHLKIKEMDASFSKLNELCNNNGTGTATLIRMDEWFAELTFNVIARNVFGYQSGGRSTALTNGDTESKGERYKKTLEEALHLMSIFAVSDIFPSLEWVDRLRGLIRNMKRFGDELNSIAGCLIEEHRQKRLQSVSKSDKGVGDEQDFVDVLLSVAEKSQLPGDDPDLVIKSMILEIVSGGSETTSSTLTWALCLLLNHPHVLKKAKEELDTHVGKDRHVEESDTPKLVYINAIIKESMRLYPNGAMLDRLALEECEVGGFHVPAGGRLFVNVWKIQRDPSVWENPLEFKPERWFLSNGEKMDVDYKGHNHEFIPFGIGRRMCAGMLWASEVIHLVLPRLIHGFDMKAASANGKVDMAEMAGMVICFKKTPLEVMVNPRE
Kind of series: In vitro enzyme assay with yeast microsomal fractions containing CYP82X1 (CPR/82X1). The settings on record: yeast microsomes (CPR/82X1), extracted ion chromatograms, FIG. 13. The class given is biochemical. The text has this:
(§1) The full-length coding region of CYP82X1 was amplified using cDNA derived from total stem RNA of the Bea's Choice chemotype using Takara Ex Taq DNA polymerase (Fisher Scientific, Ottawa, Canada), and using a primer 5′-[…]-3′ (SEQ ID NO: 607) and reverse primer 5′-[…]-3′ (SEQ ID NO: 608). Owing to problems with heterologous expression in yeast, CYP82X2 was synthesized with the first 60 N-terminal amino acids replaced with the first 43 N-terminal amino acids from the lettuce cytochrome P450 germacrene A oxidase Nguyen, D. T. et al. J. Biol. Chem. 285, 16588-16598 (2010). For heterologous expression of Flag-tagged CYPs in yeast (Saccharomyces cerevisiae), the full-length coding regions of CYP82X1 and CYP82X2 were inserted into the NotI and SpeI restriction sites of the dual plasmid pESC-leu2d::CPR Ro, D.-K., Ouellet, M., Paradise, E. M., Burd, H., Eng, D., Paddon, C. J., Newman, J. D., & Keesling, J. D. BMC Biotech. 8, 83 (2008) yielding pESC-Leu2d::CYP82X1/CPR and pESC-Leu2d::CYP82X2/CPR. The protease-deficient yeast strain YPL 154C:Pep4 was transformed with pESC-Leu2d::CYP82X1/CPR and pESC-Leu2d::CYP82X2/CPR. Yeast culture, microsome preparation, and immunoblot analysis were performed as described previously Dang, T.-T. T. & Facchini, P. J. J. Biol. Chem. 289, 2013-2026 (2014). For heterologous expression of CXE1, CXE2, and AT1, corresponding open reading frames were amplified using cDNA derived from total stem RNA of the Bea's Choice chemotype and cloned in-frame an N-terminal His-tag sequence in the Escherichia coli expression vector pRSETA (Invitrogen, Carlsbad, Calif.). CXE1 and CXE2 were individually inserted into the SacI and HindIII restriction sties, whereas AT1 was inserted into the KpnI and HindIII sites, of pRSETA using a primer 5′-[…]-3′ (SEQ ID NO: 609) and reverse primer 5′-[…]-3′ (SEQ ID NO: 610). […] Microsomal fractions containing recombinant CYP82X1 or CYP82X2 were detected using a-FLAG antibodies, whereas recombinant CPR was detected using α-c-Myc antibodies (FIG. 12 A). […]

Series [3] addresses T3, CYP82X2 (UniProt D5J9U8+I3PLR0).
T3 construct: the full-length coding regions of CYP82X1 and CYP82X2 were inserted into the NotI and SpeI restriction sites; FLAG; made in house; host or cells: Saccharomyces cerevisiae YPL 154C:Pep4, microsomal fraction
T3 sequence (D5J9U8+I3PLR0 with tags, fused parts or gaps): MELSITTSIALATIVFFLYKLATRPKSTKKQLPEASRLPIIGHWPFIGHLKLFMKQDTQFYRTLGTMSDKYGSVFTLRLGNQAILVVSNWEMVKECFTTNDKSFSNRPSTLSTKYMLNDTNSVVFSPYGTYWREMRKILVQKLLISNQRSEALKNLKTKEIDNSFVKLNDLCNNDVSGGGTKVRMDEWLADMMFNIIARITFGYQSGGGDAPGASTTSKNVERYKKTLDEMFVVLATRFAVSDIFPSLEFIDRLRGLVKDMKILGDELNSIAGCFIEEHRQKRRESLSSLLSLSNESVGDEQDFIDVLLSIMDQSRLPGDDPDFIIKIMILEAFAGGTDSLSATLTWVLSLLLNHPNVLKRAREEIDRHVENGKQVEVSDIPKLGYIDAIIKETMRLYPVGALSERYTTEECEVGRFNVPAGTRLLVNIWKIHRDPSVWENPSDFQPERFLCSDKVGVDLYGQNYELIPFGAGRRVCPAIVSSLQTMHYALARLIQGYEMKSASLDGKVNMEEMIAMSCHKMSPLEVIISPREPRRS
Kind of series: In vitro enzyme assay with yeast microsomal fractions containing CYP82X2 (CPR/82X2). The settings on record: yeast microsomes (CPR/82X2), extracted ion chromatograms, FIG. 13. The class given is biochemical, Papaver somniferum.
Text: as §1

For series [4], the target named is CYP82Y1 (Papaver somniferum, UniProt I3PLR1, R101S). The settings on record: yeast microsomes, 500 μM NADPH, pH 7.5, 30° C.
Sequence of CYP82Y1 (I3PLR1 whole entry R101S): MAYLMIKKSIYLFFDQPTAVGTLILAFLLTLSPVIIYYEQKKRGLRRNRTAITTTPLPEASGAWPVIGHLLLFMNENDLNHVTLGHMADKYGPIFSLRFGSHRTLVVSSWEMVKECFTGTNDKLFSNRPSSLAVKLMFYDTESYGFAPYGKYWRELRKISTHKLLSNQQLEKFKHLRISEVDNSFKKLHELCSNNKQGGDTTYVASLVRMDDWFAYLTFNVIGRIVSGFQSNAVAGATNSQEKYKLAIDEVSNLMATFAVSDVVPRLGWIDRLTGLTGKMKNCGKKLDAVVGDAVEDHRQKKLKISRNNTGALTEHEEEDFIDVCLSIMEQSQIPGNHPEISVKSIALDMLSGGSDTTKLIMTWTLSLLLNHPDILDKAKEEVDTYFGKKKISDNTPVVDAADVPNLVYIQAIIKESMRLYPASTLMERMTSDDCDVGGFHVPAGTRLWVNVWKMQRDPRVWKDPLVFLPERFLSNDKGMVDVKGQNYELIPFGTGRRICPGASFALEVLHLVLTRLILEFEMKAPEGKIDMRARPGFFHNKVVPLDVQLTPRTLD

For the compound `COc1ccc2c(c1OC)C(O)OC2C1c2c(cc3c(c2OC)OCO3)CCN1C` (stereo not drawn) [narcotine hemiacetal], in series [1] (in the presence of NAD^+ compared with NADP^+ as the cofactor), the “affinity of NOS for the alkaloid substrate and corresponding catalytic efficiency” value is “significantly higher”. In series [1], the “acceptance as substrate / conversion by NOS” value is on record as “able to oxidize the hydroxyl group on the hemiacetal ring”.

Consider `COc1ccc2c3c1O[C@H]1C(=O)C=C[C@H]4[C@@H](C2)N(C)CC[C@]314` [codeinone], for which, in series [1], the “acceptance as substrate / conversion by NOS” value is reported as “none were accepted by NOS”.

For `COc1ccc2c(c1OC)C[N+]1(C)CCc3cc4c(c(O)c3C1C2OC(C)=O)OCO4` [(S)-1-hydroxy-13-O-acetyl-N-methylcanadine], the “conversion as substrate by CYP82X1” value in series [2] is given as “converting (S)-1-hydroxy-13-O-acetyl-N-methylcanadine (m/z 428) to (S)-1,8-dihydroxy-13-O-acetyl-N-methylcanadine”. Further, the “conversion as substrate by CYP82X2” value in series [3] is listed as “showed no activity”.

For `c1cc2c(c3c1C[C@H]1c4cc5c(cc4CCN1C3)OCO5)OCO2` [stylopine], the “acceptance as substrate / conversion by NOS” value in series [1] is given as “none were accepted by NOS”.

A word on the Km: it is the concentration of substrate that gives half-maximal velocity. With `NC(=O)c1ccc[n+]([C@@H]2O[C@H](COP(=O)([O-])OP(=O)(O)OC[C@H]3O[C@@H](n4cnc5c(N)ncnc54)[C@H](O)[C@@H]3O)[C@@H](O)[C@H]2O)c1` [NAD^+], the Km in series [1] came to 33.1 µM.

With `C[N@@+]12CCc3cc4c(cc3[C@@H]1Cc1ccc3c(c1C2)OCO3)OCO4` [N-methylstylopine, reference compound], the “conversion as substrate by CYP82Y1” value in series [4] is reported as “give rise to 1-hydroxy-N-methylstylopine”.

In the case of `COc1ccc2c(c1OC)C[N+]1(C)CCc3cc4c(c(O)c3C1C2)OCO4` [(S)-1-hydroxy-N-methylcanadine], the “conversion as substrate by CYP82X1” value in series [2] was 4-O-demethylmacrantaldehyde. For the same compound, the “conversion as substrate by CYP82X2” value in series [3] is given as “yielding (S)-1,13-dihydroxy-N-methylcanadine”.

Regarding `NC(=O)c1ccc[n+]([C@@H]2O[C@H](COP(=O)([O-])OP(=O)(O)OC[C@H]3O[C@@H](n4cnc5c(N)ncnc54)[C@H](OP(=O)(O)O)[C@@H]3O)[C@@H](O)[C@H]2O)c1` [NADP^+], in series [1], the Km amounted to 1250 µM.

Consider `COc1ccc2c3c1O[C@H]1[C@@H](O)C=C[C@H]4[C@@H](C2)N(C)CC[C@@]341` [codeine], for which, in series [1], the “acceptance as substrate / conversion by NOS” value is “none were accepted by NOS”.

For `COc1ccc2c(c1OC)C[N+]1(C)CCc3cc4c(cc3C1C2)OCO4` [(S)—N-methylcanadine], the “conversion as substrate by CYP82Y1” value in series [4] is listed as “yielding 1-hydroxy-N-methylcanadine”.

In the case of `COC1=C[C@]23CCN(C)[C@H](Cc4ccc(OC)c(O)c42)C3=CC1=O` [salutaridine], in series [1], the “acceptance as substrate / conversion by NOS” value was “none were accepted by NOS”.

For the compound `COc1ccc2c(c1OC)C(O)O[C@@H]2[C@H]1c2c(cc3c(c2O)OCO3)CCN1C` (stereo partly drawn) [narcotoline hemiacetal], in series [1], the “acceptance as substrate / conversion by NOS” value is “yielded a new compound consistent with narcotoline”.
